Laboratory results taken from patent US7541368B2, “Pyrazoles as inhibitors of tumor necrosis factor” (Aventis Pharmaceuticals Inc., priority 2003, dated 2009).
Like-named read-outs stand apart in the source and are kept apart here. One block for each compound: values may come before it.

What was measured:
[1] = target: T1, Inactive N-terminal His6 tagged murine P38 (Mus musculus, UniProt P47811); experiment: p38 cascade assay (HTRF; inactive p38 activated by MKK-6, ATF-2 phosphorylation); type: biochemical; settings: inactive p38 preincubated with compound, then MKK-6, ATF-2, ATP; read-out: 50% inhibition in the p38 cascade assay at concentrations within the range
T1 construct: His6 (N); made in house
Procedure: The homogeneous time resolved fluorescence method (HTRF) assay measured the phosphorylation of human activating transcription factor (ATF)-2 protein by P38 following activation by MKK-6 and was run in A384 well plate format. […] MBP-tagged mouse MKK-6 (final concentration 50 nM), GST-tagged ATF-2 (fmal concentration 200 nM) and ATP (final concentration 50 μM) were then added and the incubation continued for 90 min. p38, MKK-6 and ATF-2 were prepared in the Protein Production Group, Aventis Pharmaceuticals. XL665 labeled anti-GST antibody (Cis Bio International) and cryptate labeled anti-pbospho-ATF2 antibody (Cis Bio International) were then added to generate the specific signal proportional to the phosphorylation of the substrate. The close proximity of XL665 labeled anti-GST antibody/phosphorylated GST-ATF2 complex and the cryptate labeled anti-phospho-ATF2 antibody results in a fluorescence transfer from cryptate to XL665. The resulting fluorescence signal was than read on a LJL Acquest set at multi-method mode using a fluorescence filter set (E=360 nm, Em=615/665 nm) with UV dichroic mirror (Integration time: 300000 μs). The results are reported as IC50 values. Compounds were tested over the concentration range of 3×10^−10M to 3×10^−5M.

[2] = target: T2, Murine p38 (Mus musculus, UniProt P47811); experiment: Murine p38α standard assay against pre-activated p38 (ATF-2 phosphorylation, DELFIA); type: biochemical; settings: murine p38, ATF-2 substrate
T2 construct: purchased CalBiochem 506122
Procedure: Compounds of the invention were tested in a conventional assay against pre-activated p38. Murine p38 enzyme activity was determined by measuring the incorporation of the γ-phosphate of ATP into ATF-2.
Human GST-tagged ATF-2 (50 μg/ml) was coated onto 96 well plates. Assay buffer (25 mM Hepes buffer, pH 7.7 containing 25 mM magnesium chloride, 2 mM dithiothreitol, 1 mM sodium orthovanadate and 100 μM ATP) was then added to each well. Compounds were dissolved in DMSO (100%) and added to the assay buffer to give a fmal DMSO concentration of 0.3%. Murine p38 (CalBiochem Catalog # 506122; 40 ng/ml) was then added and the assay continued for 1 hour.
Phosphorylated ATF-2 was quantitated using a rabbit anti-human phospho (threonine 71)-specific ATF-2 primary antibody (Cell Signaling, Catalog # 9221B) followed by a sheep europium N^1-labelled anti-rabbit IgG secondary antibody (Perkin Elmer Life Sciences Catalog # AD0105) and addition of the DELFIA enhancement solution (Perkin Elmer Life Sciences) resulting.
Fluorescence was measured using a Wallac Victor^2 1420 multi-label HTS counter (Perkin Elmer Life Sciences). The results are reported as IC50 values. Compounds were tested over the concentration range of 3×10^−10M to 3>10^−5M.

[3] = test system: TNF-alpha release in THP-1 cells; experiment: LPS-induced TNF-alpha release in THP-1 cells; type: cell-based; settings: Homo sapiens, THP-1, LPS-stimulated THP-1 cells
Outline: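 TNF-alpha in supernatants was quantified by sandwich ELISA against a log/log recombinant standard curve (0.125-16 ng/ml). Before this, THP-1 cells (1×10^6 cells/ml, serum-reduced) received compound at 1×10^−9 to 1×10^−6 M in 0.3% DMSO for 1 h, then LPS 20 μg/ml for 18 h.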

[4] = TNF-alpha by ELISA, read-out: THP 1 cells
[5] = read-out: 50% inhibition in the LPS-induced TNF-alpha release in THP-1 cells assay at concentrations within the range

T1 sequence (P47811 whole entry): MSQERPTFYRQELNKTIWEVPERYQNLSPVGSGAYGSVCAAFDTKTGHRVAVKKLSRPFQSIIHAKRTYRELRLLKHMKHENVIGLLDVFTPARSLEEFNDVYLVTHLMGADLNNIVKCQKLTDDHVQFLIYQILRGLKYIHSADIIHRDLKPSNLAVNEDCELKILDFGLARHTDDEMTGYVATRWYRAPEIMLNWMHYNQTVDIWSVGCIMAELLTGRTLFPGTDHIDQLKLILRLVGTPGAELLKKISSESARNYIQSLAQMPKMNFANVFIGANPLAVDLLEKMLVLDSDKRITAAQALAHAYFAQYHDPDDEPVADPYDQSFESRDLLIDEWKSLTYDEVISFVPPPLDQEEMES
T2 sequence (P47811 whole entry): as above

Structure (SMILES): COc1ccc(C(=O)N2CCC(Cc3ccc(NC(=O)Nc4cc(C(C)(C)C)nn4-c4ccc(C)cc4)cc3)CC2)c(OC)c1 [Compound A218, 1-(5-tert-Butyl-2-p-tolyl-2H-pyrazol-3-yl)-3-{4-[1-(2,4-dimethoxy-benzoyl)-piperidin-4-ylmethyl]-phenyl}-urea]
IC50 [1]: 0.01 to 0.1 µM | IC50 [2]: 0.23 µM | IC50 [3, 4]: 0.0155 µM | IC50 [3, 5]: 0.01 to 0.5 µM

Structure (SMILES): Cc1ccc(-n2nc(C(C)(C)C)cc2NC(=O)Nc2ccc(CC3CCN(C(=O)CCOc4ccccc4)CC3)cc2)cc1 [Compound A292, 1-(5-tert-Butyl-2-p-tolyl-2H-pyrazol-3-yl)-3-{4-[1-(3-phenoxy-propionyl)-piperidin-4-ylmethyl]-phenyl}-urea]
IC50 [1]: 0.01 to 0.1 µM | IC50 [3, 5]: 0.01 to 0.5 µM

Structure (SMILES): Cc1ccc(-n2nc(C(C)(C)C)cc2NC(=O)Nc2ccc(CC3CCN(C(=O)c4ccsc4)CC3)cc2)cc1 [Compound A294, 1-(5-tert-Butyl-2-p-tolyl-2H-pyrazol-3-yl)-3-{4-[1-(thiophene-3-carbonyl)-piperidin-4-ylmethyl]-phenyl}-urea]
IC50 [1]: 0.01 to 0.1 µM | IC50 [3, 5]: 0.01 to 0.5 µM

Structure (SMILES): Cc1ccc(-n2nc(C(C)(C)C)cc2NC(=O)Nc2ccc(CC3CCN(C(=O)c4cnc(O)c(Cl)c4)CC3)cc2)cc1 [Compound A326, 1-(5-tert-Butyl-2-p-tolyl-2H-pyrazol-3-yl)-3-{4-[1-(5-chloro-6-hydroxy-pyridine-3-carbonyl)-piperidin-4-ylmethyl]-phenyl}-urea]
IC50 [1]: 0.01 to 0.1 µM | IC50 [3, 5]: 0.01 to 0.5 µM

Structure (SMILES): Cc1ccc(-n2nc(C(C)(C)C)cc2NC(=O)Nc2ccc(CC3CCN(C(=O)c4cccc(C)n4)CC3)cc2)cc1 [Compound A334, 1-(5-tert-Butyl-2-p-tolyl-2H-pyrazol-3-yl)-3-{4-[1-(6-methyl-pyridine-2-carbonyl)-piperidin-4-ylmethyl]-phenyl}-urea]
IC50 [1]: 0.01 to 0.1 µM | IC50 [3, 5]: 0.01 to 0.5 µM

Structure (SMILES): CC(=O)OCc1ccc(C(=O)N2CCC(Cc3ccc(NC(=O)Nc4cc(C(C)(C)C)nn4-c4ccc(C)cc4)cc3)CC2)cc1 [Compound A336, Acetic acid 4-(4-{4-[3-(5-tert-butyl-2-p-tolyl-2H-pyrazol-3-yl)-ureido]-benzyl}-piperidin-1-carbonyl)-benzyl ester]
IC50 [1]: 0.01 to 0.1 µM | IC50 [3, 5]: 0.01 to 0.5 µM

Structure (SMILES): Cc1ccc(-n2nc(C(C)(C)C)cc2NC(=O)Nc2ccc(CC3CCN(C(=O)CNC(=O)c4ccccc4)CC3)cc2)cc1 [Compound A352, N-[2-(4-{4-[3-(5-tert-Butyl-2-p-tolyl-2H-pyrazol-3-yl)-ureido]-benzyl}-piperidin-1-yl)-2-oxo-ethyl]-benzamide]
IC50 [1]: 0.01 to 0.1 µM | IC50 [3, 5]: 0.01 to 0.5 µM

Structure (SMILES): Cc1ccc(-n2nc(C(C)(C)C)cc2NC(=O)Nc2ccc(CC3CCN(C(=O)c4ccc5[nH]ccc5c4)CC3)cc2)cc1 [Compound A361, 1-(5-tert-Butyl-2-p-tolyl-2H-pyrazol-3-yl)-3-{4-[1-(1H-indole-5-carbonyl)-piperidin-4-ylmethyl]-phenyl}-urea]
IC50 [1]: 0.01 to 0.1 µM | IC50 [3, 5]: 0.01 to 0.5 µM

Structure (SMILES): Cc1ccc(-n2nc(C(C)(C)C)cc2NC(=O)Nc2ccc(CC3CCN(C(=O)c4ccncc4)CC3)cc2)cc1 [Compound A364, 1-(5-tert-Butyl-2-p-tolyl-2H-pyrazol-3-yl)-3-{4-[1-(pyridine-4-carbonyl)-piperidin-4-ylmethyl]-phenyl}-urea]
IC50 [1]: 0.01 to 0.1 µM | IC50 [3, 5]: 0.01 to 0.5 µM

Structure (SMILES): COCC(=O)N1CCC(Cc2ccc(NC(=O)Nc3cc(C(C)(C)C)nn3-c3ccc(C)cc3)cc2)CC1 [Compound A367, 1-(5-tert-Butyl-2-p-tolyl-2H-pyrazol-3-yl)-3-{4-[1-(2-methoxy-acetyl)-piperidin-4-ylmethyl]-phenyl}-urea]
IC50 [1]: 0.01 to 0.1 µM | IC50 [3, 5]: 0.01 to 0.5 µM

Structure (SMILES): COc1ccc(C(=O)N2C3CCC2CC(Cc2ccc(NC(=O)Nc4cc(C(C)(C)C)nn4-c4ccc(C)cc4)cc2)C3)c(OC)c1 (stereo not shown) [Example 4, 1-(5-tert-Butyl-2-p-tolyl-2H-pyrazol-3-yl)-3-{4-[8-(2,4-dimethoxy-benzoyl)-8-aza-bicyclo[3.2.1]oct-3-ylmethyl]-phenyl}-urea]
IC50 [2]: 1.17 µM | IC50 [3, 4]: 0.0795 µM

Structure (SMILES): COc1ccc(C(=O)N2C3CCC2CC(Cc2ccccc2NC(=O)Nc2cc(C(C)(C)C)nn2-c2ccc(C)cc2)C3)c(OC)c1 (stereo not shown) [Example 5, 1-(5-tert-butyl-2-p-tolyl-2H-pyrazol-3-yl)-3-{2-[8-(2,4-dimethoxy-benzoyl)-8-aza-bicyclo[3.2.1]oct-3-ylmethyl]-phenyl}-urea]
IC50 [2]: 6.75 µM | IC50 [3, 4]: 5.11 µM

Second part, the compound after the results:

IC50 [1]: 0.01 to 0.1 µM | IC50 [3, 5]: 0.01 to 0.5 µM
Structure (SMILES): CC(=O)NCC(=O)N1CCC(Cc2ccc(NC(=O)Nc3cc(C(C)(C)C)nn3-c3ccc(C)cc3)cc2)CC1 [Compound A375, N-[2-(4-{4-[3-(5-tert-Butyl-2-p-tolyl-2H-pyrazol-3-yl)-ureido]-benzyl}-piperidin-1-yl)-2-oxo-ethyl]-acetamide]

IC50 [1]: 0.01 to 0.1 µM | IC50 [3, 5]: 0.01 to 0.5 µM
Structure (SMILES): Cc1ccc(-n2nc(C(C)(C)C)cc2NC(=O)Nc2ccc(CC3CCN(C(=O)c4cccnc4)CC3)cc2)cc1 [Compound A377, 1-(5-tert-Butyl-2-p-tolyl-2H-pyrazol-3-yl)-3-{4-[1-(pyridine-3-carbonyl)-piperidin-4-ylmethyl]-phenyl}-urea]

IC50 [1]: 0.01 to 0.1 µM | IC50 [3, 5]: 0.01 to 0.5 µM
Structure (SMILES): Cc1ccc(-n2nc(C(C)(C)C)cc2NC(=O)Nc2ccc(CC3CCN(C(=O)c4ccc5ncccc5c4)CC3)cc2)cc1 [Compound A386, 1-(5-tert-Butyl-2-p-tolyl-2H-pyrazol-3-yl)-3-{4-[1-(quinoline-6-carbonyl)-piperidin-4-ylmethyl]-phenyl}-urea]

IC50 [1]: 0.01 to 0.1 µM | IC50 [3, 5]: 0.01 to 0.5 µM
Structure (SMILES): Cc1ccc(-n2nc(C(C)(C)C)cc2NC(=O)Nc2ccc(CC3CCN(S(C)(=O)=O)CC3)cc2)cc1 [Compound A608, 1-(5-tert-Butyl-2-p-tolyl-2H-pyrazol-3-yl)-3-[4-(1-methanesulfonyl-piperidin-4-ylmethyl)-phenyl]-urea]

IC50 [2]: 0.5 µM | IC50 [3, 4]: 0.083 µM | IC50 [3, 5]: 0.01 to 0.5 µM
Structure (SMILES): COc1ccc(C(=O)N2CCC(Cc3ccccc3NC(=O)Nc3cc(C(C)(C)C)nn3-c3ccc(C)cc3)CC2)c(OC)c1 [Compound A1113, 1-(5-tert-butyl-2-p-tolyl-2H-pyrazol-3-yl)-3-{2-[1-(2,4-dimethoxy-benzoyl)-piperidin-4-ylmethyl]-phenyl}-urea]

IC50 [1]: 0.01 to 0.1 µM | IC50 [3, 5]: 0.01 to 0.5 µM
Structure (SMILES): Cc1ccc(-n2nc(C(C)(C)C)cc2NC(=O)Nc2ccc(CC3CCN(C(=O)OCc4ccccc4)CC3)cc2)cc1 [Compound A1610, 4-{4-[3-(5-tert-Butyl-2-p-tolyl-2H-pyrazol-3-yl)-ureido]-benzyl}-piperidine-1-carboxylic acid benzyl ester]

IC50 [1]: 0.01 to 0.1 µM | IC50 [3, 5]: 0.01 to 0.5 µM
Structure (SMILES): Cc1ccc(-n2nc(C(C)(C)C)cc2NC(=O)Nc2ccc(CC3CCN(C(=O)OCC(C)C)CC3)cc2)cc1 [Compound A1625, 4-{4-[3-(5-tert-Butyl-2-p-tolyl-2H-pyrazol-3-yl)-ureido]-benzyl}-piperidine-1-carboxylic acid isobutyl ester]

IC50 [1]: 0.01 to 0.1 µM | IC50 [3, 5]: 0.01 to 0.5 µM
Structure (SMILES): COc1ccc(OC)c(C(=O)N2CCC(Cc3cccc(NC(=O)Nc4cc(C(C)(C)C)nn4-c4ccc(C)cc4)c3)CC2)c1 [Compound A1636, 1-(5-tert-Butyl-2-p-tolyl-2H-pyrazol-3-yl)-3-{3-[1-(2,5-dimethoxy-benzoyl)-piperidin-4-ylmethyl]-phenyl}-urea]
